# Assay results reported in patent US9322066B2, “Predictors for cancer treatment” (priority 2011, dated 2016).
# System: relapsed or refractory, rituximab-naive or -sensitive follicular B-cell NHL
# Experiment: Time to next anti-lymphoma therapy, Vc-R vs rituximab study, by biomarker
# Type: in vivo, human
# Set-up: Median, Time to Next Anti-Lymphoma Therapy / Time to Next Anti-Lymphoma Therapy, Median: unit not given here
# Excerpt: Non-Hodgkin lymphoma (NHL) encompasses several unique malignant lymphoid disease entities that vary in clinical behavior, morphologic appearance, immunologic, and molecular phenotype. […] A randomized, open-label, active-controlled, multicenter, multinational, prospective study to compare the efficacy and safety of the combination of bortezomib and rituximab (Vc-R) to single-agent rituximab in subjects who have relapsed or refractory, rituximab-naive or -sensitive follicular B-cell NHL was performed.
# Subjects were centrally randomized to Treatment Groups A (Vc-R) or B (rituximab) in a 1:1 ratio taking into account the following stratification factors: • Follicular Lymphoma International Prognostic Index (FLIPI) score (low [0 or 1 factor], intermediate [2 factors], high [≧3 factors]); • Prior rituximab therapy (yes, no); • Time since last dose of anti-lymphoma therapy (≦1 year, >1 year); • Region (United States/Canada, European Union, Rest of World).
# The following clinical endpoints were included in the analysis within each treatment group and an overall comparison was made with the biomarker-related endpoints: Progression-free survival, defined as the interval between the date of randomization and the date of progressive disease (PD) or death, whichever is first reported in the ITT population; overall survival; overall response rate (complete response [CR]+CR unconfirmed [CRu]+partial response [PR]); overall CR rate (CR+CRu); duration of response; time to next anti-lymphoma therapy; and treatment free interval.
# [1] = PSMB1/A171S: G/G, >1 year since last anti-lymphoma treatment
# [2] = PSMB1/A171S: G/G, Ann Arbor Stage IV
# [3] = PSMB1/A171S: G/G, European Union
# [4] = PSMB1/A171S: G/G, High Tumor Burden
# [5] = PSMB1/A171S: G/G, ≦65 years old
# [6] = PSMB1/I208N: T/T, >1 year since last anti-lymphoma treatment
# [7] = PSMB1/I208N: T/T, Ann Arbor Stage IV
# [8] = PSMB1/I208N: T/T, European Union
# [9] = PSMB1/I208N: T/T, High Tumor Burden
# [10] = PSMB1/I208N: T/T, ≦65 years old
# [11] = PSMB1/P11A: C/G, European Union
# [12] = PSMB1/P11A: C/G, High Tumor Burden
# [13] = PSMB1/P11A: G/G, >1 year since last anti-lymphoma treatment
# [14] = PSMB1/P193L: C/C, >1 year since last anti-lymphoma treatment
# [15] = PSMB1/P193L: C/C, Ann Arbor Stage IV
# [16] = PSMB1/P193L: C/C, European Union
# [17] = PSMB1/P193L: C/C, High Tumor Burden
# [18] = PSMB1/P193L: C/C, ≦65 years old
# [19] = PSMB2/E49X: G/G, >1 year since last anti-lymphoma treatment
# [20] = PSMB2/E49X: G/G, Ann Arbor Stage IV
# [21] = PSMB2/E49X: G/G, European Union
# [22] = PSMB2/E49X: G/G, High Tumor Burden
# [23] = PSMB2/G187V: G/G, >1 year since last anti-lymphoma treatment
# [24] = PSMB2/G187V: G/G, Ann Arbor Stage IV
# [25] = PSMB2/G187V: G/G, European Union
# [26] = PSMB2/G187V: G/G, High Tumor Burden
# [27] = PSMB2/G187V: G/G, ≦65 years old
# [28] = PSMB2/L159F: C/C, >1 year since last anti-lymphoma treatment
# [29] = PSMB2/L159F: C/C, Ann Arbor Stage IV
# [30] = PSMB2/L159F: C/C, European Union
# [31] = PSMB2/L159F: C/C, High Tumor Burden
# [32] = PSMB2/L159F: C/C, ≦65 years old
# [33] = PSMB5/L206M: C/C, >1 year since last anti-lymphoma treatment
# [34] = PSMB5/L206M: C/C, Ann Arbor Stage IV
substance,measurement,setting,value
rituximab,"Median, Time to Next Anti-Lymphoma Therapy","P65 INTENSITY CYTOPLASMIC SIGNAL: ≧2+, ≦65 years old, IRC Review",484
same,"Time to Next Anti-Lymphoma Therapy, Evt/N",[1],98/165
same,"Time to Next Anti-Lymphoma Therapy, Median",[1],688
same,"Time to Next Anti-Lymphoma Therapy, Evt/N",[2],86/127
same,"Time to Next Anti-Lymphoma Therapy, Median",[2],457
same,"Time to Next Anti-Lymphoma Therapy, Evt/N",[3],75/119
same,"Time to Next Anti-Lymphoma Therapy, Median",[3],675
same,"Time to Next Anti-Lymphoma Therapy, Evt/N",[4],108/147
same,"Time to Next Anti-Lymphoma Therapy, Median",[4],396
same,"Time to Next Anti-Lymphoma Therapy, Evt/N",[5],130/198
same,"Time to Next Anti-Lymphoma Therapy, Median",[5],489
same,"Time to Next Anti-Lymphoma Therapy, Evt/N",[6],98/165
same,"Time to Next Anti-Lymphoma Therapy, Median",[6],688
same,"Time to Next Anti-Lymphoma Therapy, Evt/N",[7],86/127
same,"Time to Next Anti-Lymphoma Therapy, Median",[7],457
same,"Time to Next Anti-Lymphoma Therapy, Evt/N",[8],75/119
same,"Time to Next Anti-Lymphoma Therapy, Median",[8],675
same,"Time to Next Anti-Lymphoma Therapy, Evt/N",[9],108/147
same,"Time to Next Anti-Lymphoma Therapy, Median",[9],396
same,"Time to Next Anti-Lymphoma Therapy, Evt/N","PSMB1/I208N: T/T, No Subgroup",173/276
same,"Time to Next Anti-Lymphoma Therapy, Median","PSMB1/I208N: T/T, No Subgroup",546
same,"Time to Next Anti-Lymphoma Therapy, Evt/N",[10],130/198
same,"Time to Next Anti-Lymphoma Therapy, Median",[10],489
same,"Time to Next Anti-Lymphoma Therapy, Evt/N",[11],34/49
same,"Time to Next Anti-Lymphoma Therapy, Median",[11],462
same,"Time to Next Anti-Lymphoma Therapy, Evt/N","PSMB1/P11A: C/G, Female",42/75
same,"Time to Next Anti-Lymphoma Therapy, Median","PSMB1/P11A: C/G, Female",546
same,"Time to Next Anti-Lymphoma Therapy, Evt/N",[12],49/72
same,"Time to Next Anti-Lymphoma Therapy, Median",[12],358
same,"Time to Next Anti-Lymphoma Therapy, Evt/N","PSMB1/P11A: C/G, No Subgroup",78/127
same,"Time to Next Anti-Lymphoma Therapy, Median","PSMB1/P11A: C/G, No Subgroup",550
same,"Time to Next Anti-Lymphoma Therapy, Evt/N","PSMB1/P11A: C/G, Other",2/3
same,"Time to Next Anti-Lymphoma Therapy, Median","PSMB1/P11A: C/G, Other",164
same,"Time to Next Anti-Lymphoma Therapy, Evt/N","PSMB1/P11A: C/G, White",67/111
same,"Time to Next Anti-Lymphoma Therapy, Median","PSMB1/P11A: C/G, White",581
same,"Time to Next Anti-Lymphoma Therapy, Evt/N","PSMB1/P11A: C/G, ≦65 years old",63/96
same,"Time to Next Anti-Lymphoma Therapy, Median","PSMB1/P11A: C/G, ≦65 years old",546
same,"Time to Next Anti-Lymphoma Therapy, Evt/N",[13],17/20
same,"Time to Next Anti-Lymphoma Therapy, Median",[13],429
same,"Time to Next Anti-Lymphoma Therapy, Evt/N","PSMB1/P11A: G/G, Male",17/19
same,"Time to Next Anti-Lymphoma Therapy, Median","PSMB1/P11A: G/G, Male",421
same,"Time to Next Anti-Lymphoma Therapy, Evt/N","PSMB1/P11A: G/G, No Subgroup",30/37
same,"Time to Next Anti-Lymphoma Therapy, Median","PSMB1/P11A: G/G, No Subgroup",436
same,"Time to Next Anti-Lymphoma Therapy, Evt/N","PSMB1/P11A: G/G, White",27/32
same,"Time to Next Anti-Lymphoma Therapy, Median","PSMB1/P11A: G/G, White",421
same,"Time to Next Anti-Lymphoma Therapy, Evt/N","PSMB1/P11A: G/G, ≦65 years old",21/25
same,"Time to Next Anti-Lymphoma Therapy, Median","PSMB1/P11A: G/G, ≦65 years old",409
same,"Time to Next Anti-Lymphoma Therapy, Evt/N",[14],98/165
same,"Time to Next Anti-Lymphoma Therapy, Median",[14],688
same,"Time to Next Anti-Lymphoma Therapy, Evt/N",[15],86/127
same,"Time to Next Anti-Lymphoma Therapy, Median",[15],457
same,"Time to Next Anti-Lymphoma Therapy, Evt/N",[16],75/119
same,"Time to Next Anti-Lymphoma Therapy, Median",[16],675
same,"Time to Next Anti-Lymphoma Therapy, Evt/N",[17],108/147
same,"Time to Next Anti-Lymphoma Therapy, Median",[17],396
same,"Time to Next Anti-Lymphoma Therapy, Evt/N","PSMB1/P193L: C/C, No Subgroup",173/276
same,"Time to Next Anti-Lymphoma Therapy, Median","PSMB1/P193L: C/C, No Subgroup",546
same,"Time to Next Anti-Lymphoma Therapy, Evt/N",[18],130/198
same,"Time to Next Anti-Lymphoma Therapy, Median",[18],489
same,"Time to Next Anti-Lymphoma Therapy, Evt/N",[19],98/165
same,"Time to Next Anti-Lymphoma Therapy, Median",[19],688
same,"Time to Next Anti-Lymphoma Therapy, Evt/N",[20],86/127
same,"Time to Next Anti-Lymphoma Therapy, Median",[20],457
same,"Time to Next Anti-Lymphoma Therapy, Evt/N",[21],75/119
same,"Time to Next Anti-Lymphoma Therapy, Median",[21],675
same,"Time to Next Anti-Lymphoma Therapy, Evt/N",[22],108/147
same,"Time to Next Anti-Lymphoma Therapy, Median",[22],396
same,"Time to Next Anti-Lymphoma Therapy, Evt/N","PSMB2/E49X: G/G, No Subgroup",173/276
same,"Time to Next Anti-Lymphoma Therapy, Median","PSMB2/E49X: G/G, No Subgroup",546
same,"Time to Next Anti-Lymphoma Therapy, Evt/N","PSMB2/E49X: G/G, ≦65 years old",130/198
same,"Time to Next Anti-Lymphoma Therapy, Median","PSMB2/E49X: G/G, ≦65 years old",489
same,"Time to Next Anti-Lymphoma Therapy, Evt/N",[23],98/165
same,"Time to Next Anti-Lymphoma Therapy, Median",[23],688
same,"Time to Next Anti-Lymphoma Therapy, Evt/N",[24],86/127
same,"Time to Next Anti-Lymphoma Therapy, Median",[24],457
same,"Time to Next Anti-Lymphoma Therapy, Evt/N",[25],75/119
same,"Time to Next Anti-Lymphoma Therapy, Median",[25],675
same,"Time to Next Anti-Lymphoma Therapy, Evt/N",[26],108/147
same,"Time to Next Anti-Lymphoma Therapy, Median",[26],396
same,"Time to Next Anti-Lymphoma Therapy, Evt/N","PSMB2/G187V: G/G, No Subgroup",173/276
same,"Time to Next Anti-Lymphoma Therapy, Median","PSMB2/G187V: G/G, No Subgroup",546
same,"Time to Next Anti-Lymphoma Therapy, Evt/N",[27],130/198
same,"Time to Next Anti-Lymphoma Therapy, Median",[27],489
same,"Time to Next Anti-Lymphoma Therapy, Evt/N",[28],98/165
same,"Time to Next Anti-Lymphoma Therapy, Median",[28],688
same,"Time to Next Anti-Lymphoma Therapy, Evt/N",[29],86/127
same,"Time to Next Anti-Lymphoma Therapy, Median",[29],457
same,"Time to Next Anti-Lymphoma Therapy, Evt/N",[30],75/119
same,"Time to Next Anti-Lymphoma Therapy, Median",[30],675
same,"Time to Next Anti-Lymphoma Therapy, Evt/N",[31],108/147
same,"Time to Next Anti-Lymphoma Therapy, Median",[31],396
same,"Time to Next Anti-Lymphoma Therapy, Evt/N","PSMB2/L159F: C/C, No Subgroup",173/276
same,"Time to Next Anti-Lymphoma Therapy, Median","PSMB2/L159F: C/C, No Subgroup",546
same,"Time to Next Anti-Lymphoma Therapy, Evt/N",[32],130/198
same,"Time to Next Anti-Lymphoma Therapy, Median",[32],489
same,"Time to Next Anti-Lymphoma Therapy, Evt/N",[33],98/165
same,"Time to Next Anti-Lymphoma Therapy, Median",[33],688
same,"Time to Next Anti-Lymphoma Therapy, Evt/N",[34],86/127
same,"Time to Next Anti-Lymphoma Therapy, Median",[34],457
same,"Time to Next Anti-Lymphoma Therapy, Evt/N","PSMB5/L206M: C/C, European Union",75/119
